Test results from article doi:10.1101/2025.01.28.635346v1 (bioRxiv, 2025).
pEC50, pIC50: −log10 of the molar value. Bridge positions count the residues as written; N and C are the ends. Side chains are listed from the residue outwards. Peptide text beside a SMILES is read from it. * marks the point of attachment. Butanoyl(4-(4-I-phenyl)) = O=C(CCCc1ccc(I)cc1)*; PEG2 = NCCOCCOCCC(=O)O

Assays:
OPRD1 = OPRD1 (Homo sapiens, UniProt P41143); assay: Safetyscan47 GPCR cAMP, Antagonist; type: cell-based; conditions: for Emax: read-out: Max Response
ADRA2A [1] = target: T1, ADRA2A (Homo sapiens, UniProt P08913); assay: Safetyscan47 GPCR cAMP, Antagonist; type: cell-based; conditions: for Emax: read-out: Max Response
T1 sequence (P08913 1-465): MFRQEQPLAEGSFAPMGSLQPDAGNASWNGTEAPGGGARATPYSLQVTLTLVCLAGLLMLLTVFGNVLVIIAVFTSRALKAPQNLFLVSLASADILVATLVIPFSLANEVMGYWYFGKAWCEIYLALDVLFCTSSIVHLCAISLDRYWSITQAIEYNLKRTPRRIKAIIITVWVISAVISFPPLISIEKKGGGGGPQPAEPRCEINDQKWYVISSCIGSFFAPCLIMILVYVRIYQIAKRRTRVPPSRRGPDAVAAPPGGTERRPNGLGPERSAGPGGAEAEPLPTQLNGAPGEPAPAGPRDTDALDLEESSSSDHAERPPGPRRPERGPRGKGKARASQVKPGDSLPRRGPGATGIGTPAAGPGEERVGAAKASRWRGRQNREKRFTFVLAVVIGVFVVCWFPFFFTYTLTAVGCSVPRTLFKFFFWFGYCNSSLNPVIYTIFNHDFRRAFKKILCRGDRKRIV

ADORA2A = ADORA2A (Homo sapiens, UniProt P29274); assay: Safetyscan47 GPCR Calcium Flux, Antagonist; type: cell-based; conditions: for Emax: read-out: Max Response
integrin αvβ8 = integrin αvβ8 (Homo sapiens, UniProt P06756+P26012); assay: ELISA competition assay, integrin αvβ8 binding to LAP
OPRK1 = OPRK1 (Homo sapiens, UniProt P41145); assay: Safetyscan47 GPCR cAMP, Agonist; type: cell-based; conditions: for Emax: read-out: Max Response
OPRM1 = OPRM1 (Homo sapiens, UniProt P35372); assay: Safetyscan47 GPCR cAMP, Antagonist; type: cell-based; conditions: for Emax: OPRM1, read-out: Max Response
HTR2A = HTR2A (Homo sapiens, UniProt P28223); assay: Safetyscan47 GPCR Calcium Flux, Antagonist; type: cell-based; conditions: for Emax: read-out: Max Response
integrin αvβ5 = integrin αvβ5 (Homo sapiens, UniProt P06756+P18084); assay: ELISA competition assay, integrin αvβ5; type: binding
HTR1B = HTR1B (Homo sapiens, UniProt P28222); assay: Safetyscan47 GPCR cAMP, Antagonist; type: cell-based; conditions: for Emax: read-out: Max Response
ADRA2A [2] = target: T1, ADRA2A; assay: Safetyscan47 GPCR cAMP, Agonist; type: cell-based; conditions: for Emax: read-out: Max Response
CAV1.2 = CAV1.2 (Homo sapiens, UniProt Q13936); assay: Safetyscan47 Ion Channel, Blocker; type: cell-based
ADRB1 = ADRB1 (Homo sapiens, UniProt P08588); assay: Safetyscan47 GPCR cAMP, Agonist; type: cell-based; conditions: for Emax: read-out: Max Response
CCKAR = target: T2, CCKAR (Homo sapiens, UniProt P32238); assay: Safetyscan47 GPCR Calcium Flux, Antagonist; type: cell-based; conditions: for Emax: read-out: Max Response
T2 sequence (P32238 1-428): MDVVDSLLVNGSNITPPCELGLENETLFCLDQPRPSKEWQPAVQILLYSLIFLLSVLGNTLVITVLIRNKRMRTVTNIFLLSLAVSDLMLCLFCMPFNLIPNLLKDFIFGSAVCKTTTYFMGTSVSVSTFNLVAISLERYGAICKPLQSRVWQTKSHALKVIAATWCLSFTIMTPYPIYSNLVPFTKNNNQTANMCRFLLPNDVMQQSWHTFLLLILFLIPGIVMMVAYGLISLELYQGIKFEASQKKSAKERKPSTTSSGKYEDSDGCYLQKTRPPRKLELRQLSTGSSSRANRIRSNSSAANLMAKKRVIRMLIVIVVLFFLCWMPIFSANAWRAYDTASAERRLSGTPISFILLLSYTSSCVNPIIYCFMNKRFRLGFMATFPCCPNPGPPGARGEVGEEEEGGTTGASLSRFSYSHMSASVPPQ

ADRA1A = target: T3, ADRA1A (Homo sapiens, UniProt P35348); assay: Safetyscan47 GPCR Calcium Flux, Antagonist; type: cell-based; conditions: for Emax: read-out: Max Response
T3 sequence (P35348 1-466): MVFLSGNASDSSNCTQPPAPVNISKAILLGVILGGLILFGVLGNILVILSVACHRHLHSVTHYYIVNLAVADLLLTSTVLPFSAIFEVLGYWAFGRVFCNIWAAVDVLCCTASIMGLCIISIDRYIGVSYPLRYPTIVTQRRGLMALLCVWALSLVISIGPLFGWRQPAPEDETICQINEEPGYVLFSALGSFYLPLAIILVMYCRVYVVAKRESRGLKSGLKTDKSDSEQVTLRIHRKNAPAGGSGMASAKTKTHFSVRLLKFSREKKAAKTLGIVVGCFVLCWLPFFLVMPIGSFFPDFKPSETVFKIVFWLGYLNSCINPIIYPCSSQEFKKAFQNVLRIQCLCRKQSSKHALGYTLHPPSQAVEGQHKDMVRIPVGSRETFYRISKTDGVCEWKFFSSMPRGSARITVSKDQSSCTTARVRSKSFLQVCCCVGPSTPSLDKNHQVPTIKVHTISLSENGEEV

NMDAR (1A/2B) = NMDAR (1A/2B) (Homo sapiens, UniProt Q05586+Q13224); assay: Safetyscan47 Ion Channel, Blocker; type: cell-based; conditions: for Emax: read-out: Max Response

| SMILES | Emax (OPRD1) [%] | pIC50 (ADRA2A [1]) | Emax (ADRA2A [1]) [%] | pIC50 (ADORA2A) | Emax (ADORA2A) [%] | pIC50 (integrin αvβ8) | pEC50 (OPRK1) | Emax (OPRK1) [%] | pIC50 (OPRM1) | Emax (OPRM1) [%] | pIC50 (HTR2A) | Emax (HTR2A) [%] | pIC50 (integrin αvβ5) | pIC50 (HTR1B) | Emax (HTR1B) [%] | pEC50 (ADRA2A [2]) | Emax (ADRA2A [2]) [%] | Emax (CAV1.2) [%] | pIC50 (CAV1.2) | pEC50 (ADRB1) | further results |
| --- | --- | --- | --- | --- | --- | --- | --- | --- | --- | --- | --- | --- | --- | --- | --- | --- | --- | --- | --- | --- | --- |
| CC[C@H](C)[C@H](NC(=O)[C@H](CC(C)C)NC(=O)[C@H](CC(=O)O)NC(=O)CNC(=O)[C@H](CCCNC(=N)N)NC(=O)[C@@H](NC(=O)[C@H](Cc1ccccc1)NC(=O)[C@H](Cc1ccc(O)cc1)NC(=O)[C@@H]1CCC(=O)NCC(=O)NCC(=O)N[C@@H](CCCNC(=N)N)C(=O)NCC(=O)N[C@@H](Cc2c[nH]cn2)C(=O)N[C@@H](C(C)C)C(=O)N2CCC[C@H]2C(=O)N1)C(C)C)C(=O)N[C@@H](CO)C(=O)N[C@@H](Cc1ccccc1)C(=O)N[C@@H](Cc1ccc(O)cc1)C(=O)N[C@@H](CCCCN)C(=O)O [lassotide 36] (GGRGHVPEYFVRGDLISFYK-OH; lactam N-8) | 0 | < 4.35 | 0 | < 4.35 | 0 | 7.82 | < 4.35 | 2.19 | < 4.35 | 0 | < 4.35 | 5.08 | < 5.00 | < 4.35 | 0 | < 4.35 | 0.3 | 0 | < 4.35 | < 4.35 | pIC50 (OPRD1; RC50, Antagonist, Result Type IC50): < 4.35; Emax (ADRB1): 0%; pIC50 (CCKAR): < 4.35; Emax (CCKAR): 3.61%; pIC50 (ADRA1A): < 4.35; Emax (ADRA1A): 9.9%; pIC50 (NMDAR (1A/2B)): < 4.35; Emax (NMDAR (1A/2B)): 0% |
| CC[C@H](C)[C@H](NC(=O)[C@H](CC(C)C)NC(=O)[C@H](CC(=O)O)NC(=O)CNC(=O)[C@H](CCCNC(=N)N)NC(=O)[C@@H](NC(=O)[C@H](Cc1ccccc1)NC(=O)[C@H](Cc1ccc(O)cc1)NC(=O)[C@@H]1CCC(=O)NCC(=O)NCC(=O)N[C@@H](CCCNC(=N)N)C(=O)NCC(=O)N[C@@H](Cc2c[nH]cn2)C(=O)N[C@@H](C(C)C)C(=O)N2CCC[C@H]2C(=O)N1)C(C)C)C(=O)N[C@@H](CO)C(=O)N[C@@H](Cc1ccccc1)C(=O)N[C@@H](Cc1ccc(O)cc1)C(=O)N[C@@H](CCCCNC(=O)CCOCCOCCNC(=O)CCCc1ccc(I)cc1)C(=O)O [lassotide 47] (GGRGHVPEYFVRGDLISFYK([PEG2-Butanoyl(4-(4-I-phenyl))])-OH; lactam N-8) | 56.4 | < 4.35 | 0 | < 4.35 | 7.44 | 8.10 | < 4.35 | 23.4 | < 4.35 | 0 | < 4.35 | 10.7 | < 5.00 | < 4.35 | 0 | < 4.35 | 30.2 | 0 | < 4.35 | < 4.35 | pIC50 (OPRD1; RC50 (IC50), GPCR cAMP, Antagonist, OPRD1): 4.39; Emax (ADRB1): 0%; pIC50 (CCKAR): < 4.35; Emax (CCKAR): 3.35%; pIC50 (ADRA1A): < 4.35; Emax (ADRA1A): 2.58%; pIC50 (NMDAR (1A/2B)): < 4.35; Emax (NMDAR (1A/2B)): 0% |
